Reference: patent publication US9346761B2, “Arginine methyltransferase inhibitors and uses thereof” (Epizyme, Inc., priority 2013, dated 2016)
Where a name gives a salt, the structure may show the parent alone. Read-outs that look alike come from different tables or passages of the source.

Assays:
[1] = tested on: mono-methyl arginine in RKO cells; test: RKO methylation assay, In Cell Western for mono-methyl arginine and DNA content; type: cell-based; settings: Homo sapiens
Full-length human PRMT6 = target: T1, Full-length human PRMT6 (Homo sapiens, UniProt Q96LA8); test: PRMT6 biochemical assay (3H-SAM Flashplate, peptide substrate)
T1 construct: Flag-PRMT6-His was eluted with 200 ug/ml FLAG peptide in the same buffer; made in house; host or cells: HEK 293F cells (BacMam virus, pFastBacMam)
Outline: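 Read-out is 3H-methylated histone H4 (36-50) peptide bound to streptavidin Flashplates after a cold-SAM stop. Baculovirus-expressed Flag-PRMT6-His met compound for 30 min at room temperature before SAM and peptide; Bicine pH 7.6 buffer. IC50 fitted to % inhibition normalized to SAH (min) and DMSO (max).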

[2] = In Cell Western, RKO cells, 72 hours, percent activation of mono-methyl arginine signal, read-out: EC30

T1 sequence (Q96LA8 with tags, fused parts or gaps): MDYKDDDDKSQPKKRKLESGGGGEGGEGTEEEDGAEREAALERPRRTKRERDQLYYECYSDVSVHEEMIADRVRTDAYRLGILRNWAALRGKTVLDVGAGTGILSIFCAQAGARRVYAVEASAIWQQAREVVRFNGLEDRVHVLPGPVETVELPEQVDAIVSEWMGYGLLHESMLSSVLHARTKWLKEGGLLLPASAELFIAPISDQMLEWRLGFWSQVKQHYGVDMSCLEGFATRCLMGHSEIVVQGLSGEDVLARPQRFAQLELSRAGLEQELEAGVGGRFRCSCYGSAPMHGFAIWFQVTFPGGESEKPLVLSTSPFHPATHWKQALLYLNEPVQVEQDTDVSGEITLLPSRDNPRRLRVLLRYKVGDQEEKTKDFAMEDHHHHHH

Row | SMILES | EC30 ([1]; RKO, 72 h) [µM] | IC50 (Full-length human PRMT6) [µM] | EC30 [1, 2] [µM]
1 | CNCCN(C)Cc1cn(CC(=O)O)nc1-c1ccc(OC(C)C)cc1 [Compound 250] | > 12 | 3.01 to 10 | 
2 | CNCCN(C)Cc1cn(CC(N)=O)nc1-c1ccc(OC(C)C)cc1 [Compound 251] |  | 1.01 to 3 | > 12
3 | CCn1ncc(CN(C)CCNC)c1-c1ccc(OC(C)C)cc1 [Compound 252] | < 3 | 0.101 to 1 | 
4 | CNCCN(C)Cc1cn(CCOC)nc1-c1ccc(OC(C)C)cc1 [Compound 253, N1-((3-(4-isopropoxyphenyl)-1-(2-methoxyethyl)-1H-pyrazol-4-yl)methyl)-N1,N2-dimethylethane-1,2-diamine hydrochloride] |  | 0.101 to 1 | 3.01 to 12
5 | CNCCN(C)Cc1cn(C2CCC2)nc1-c1ccc(OC(C)C)cc1 [Compound 254, N1-((1-cyclobutyl-3-(4-isopropoxyphenyl)-1H-pyrazol-4-yl)methyl)-N1,N2-dimethylethane-1,2-diamine hydrochloride] |  | 0.101 to 1 | < 3
6 | CNCCN(C)Cc1cnn(C2CCCC2)c1-c1ccc(OC(C)C)cc1 [Compound 255] | < 3 | < 0.1 | 
7 | CNCCN(C)Cc1cn(C2CCCCC2)nc1-c1ccc(OC(C)C)cc1 [Compound 256] |  | 0.101 to 1 | > 12
8 | C=C(C)C(=O)Nc1cccc(-c2[nH]ncc2CN(C)CCNC)c1 [Compound 257] |  | 0.101 to 1 | > 12
9 | C=CC(=O)Nc1cccc(-c2[nH]ncc2CN(C)CCNC)c1 [Compound 258] |  | 0.101 to 1 | > 12
